Legend:
5-HT1A receptors [1] = assay: [35S]guanosine-5'-O-(3-thio)-triphosphate binding studies; assay type: biochemical; settings: stated in introduction, no data shown
5-HT1A receptors [2] = assay: Effect compartment model simulation of 5-HT1A RO in female rats; design: species or system female SD rats; settings: for simulated 5-HT1A RO: DRN
Description: The effect compartment model is illustrated in Figure 2. The mean plasma concentration profile of E2110 in each of four rats was fitted by two-compartment model with first order absorption and elimination. A sigmoid Emax model (Equation 4) based on the concentration in the effect compartment was fitted to the PD (RO) data. PK and PD models were linked using an effect compartment model described by the following equation: […]
where Cp and Ce are concentrations of E2110 in the plasma and effect compartments, respectively, and ke0 represents the equilibration rate constant for the effect compartment. PK and PD parameters were estimated by using […] (Version 2.01, MicroMath Research, UT, USA).

CNC(=O)c1ccc2ccn(C3CCN(CCc4c(OC)ccc5c4OC(C)(C)CC5=O)CC3)c2c1.O=C(O)/C=C/C(=O)O [E2110, 1-{1-[2-(7-Methoxy-2,2-dimethyl-4-oxochroman-8-yl)ethyl]piperidine-4-yl}-N-methyl-1H-indole-6-carboxamide fumarate]
functional character at 5-HT1A receptors (5-HT1A receptors [1]): full antagonist | simulated RO at minimum effective doses during micturition monitoring period (5-HT1A receptors [2]; 0.1 mg/kg (8-OH-DPAT model, 1-2 hours postdose) and 0.3 mg/kg (SCL model, 0.5-1 hour postdose)): around 60% | simulated 5-HT1A RO (5-HT1A receptors [2]; 0.1 mg/kg oral, 1-2 hours after dosing, 8-OH-DPAT treatment): 60-70% | simulated 5-HT1A RO (5-HT1A receptors [2]; 0.3 mg/kg oral, 0.5-1 hour after dosing, SCL model): 60-80% | 5-HT1A RO required for significant effects on micturition (5-HT1A receptors [2]; inferred from simulated RO and pharmacological tests): ≥ 60%

Source: article PMC3781034, “A Small-Animal Pharmacokinetic/Pharmacodynamic PET Study of Central Serotonin 1A Receptor Occupancy by a Potential Therapeutic Agent for Overactive Bladder” (PLoS ONE, 2013)
